How the values were obtained:
Format in all cases: cell-based
INS-1 or MIN6 cells = assay: Thapsigargin-induced apoptosis, caspase-3 activity assay; conditions: SDF-1 10 nM with thapsigargin 1 microM, 16 h
Method: FIG. 6. Inhibition of apoptosis by SDF-1 in INS-1 and MIN-6 cells is reversed by knock-down of betacatenin. A. Western blot analysis of extracts from MIN6 cells that were mock treated, thapsigargin-treated (1 μM) and/or siRNA transfected (0.25 mg/ml), by using anti-serum against cleaved caspase-3 (upper panel), anti-serum against cleaved PARP (middle panel) and actin antibody (lower panel) as a loading control. B. Caspase-3 activity (fluorescence/mg proteinx105) of INS-1 or MIN6 cells mock treated, thapsigargin-treated (1 μM) and/or siRNA transfected (0.25 mg/ml). Results are presented as mean±SD for n=3 independent experiments, All values are relative to the first (leftmost) bar. […] Quantification of apoptotic cells is expressed as percent apoptotic cells relative to the total cells counted (lower left panel). […]
Thapsigargin-induced apoptosis in INS-1 or MIN6 cells For western immuoblot assay (Cell Signaling), MIN6 cells were seeded into 6 well plates then treated with 1 microM thapsigargin or DMSO control for 16 h and apoptotic activity was measured by Western immunoblotting using antisera specific for cleaved (active) caspase-3 (Cell signaling #9661) and cleaved (active) PARP (Cell signaling #9548). For caspase-3 assay, INS-1 cells or MIN-6 cells in 24-well plates were treated with 1 microM thapsigargin or DMSO for 16 hand caspase-3 activity was determined (Molecular Probes). […]

Wnt signaling = Wnt signaling reporter (beta-galactosidase) in isolated islets of TopGal mouse; conditions: SDF-1 1 nM, isolated TopGal mouse islets
Excerpt: A. Isolated islets express reporter-driven beta-galactosidase. The dark regions mark the expression of beta-galactosidase, an indicator of the activation of the Wnt signaling reporter LacZ transgene. […] B. Polymerase chain reaction showing changes in beta-galactosidase mRNA levels in islets shown in panel A.
Isolated mouse pancreatic islets Mouse islets were isolated (Lacy PE (1994) Pancreatic islet cell transplant. Mt Sinai J. Med. 61:23-31.) from the pancreata of TopGal reporter mice transgenic for the LEF-LacZ Wnt signaling reporter (DasGupta R, Fuchs E (1999) Development. 1999 126:4557-4568.). Freshly isolated islets were treated for 4 hrs with SDF-1 with and without the addition of the Galphai/o inhibitor pertussis toxin (PTX) or the CXCR4 antagonist AMD3100. Betagalactosidase activity was determined by incubation of the islets with X-gal for 6 hrs.
Polymerase chain reaction analyses of betagalactosidase mRNA levels in isolated mouse islets Islets from TopGal mice were harvested after treatments with SDF-1, SDF-1+AMD3100, and SDF-1+pertussis toxin. RNA was extracted and beta galactosidase mRNA levels were measured by PCR using a SYBR Green QPCR kit (Stratagene) with the primers as described in Liu Z, Habener J F 2008 Glucagon-like Peptide-1 Activation of TCF7L2-dependent Wnt Signaling Enhances Pancreatic Beta Cell Proliferation. […]

INS-1 cells [1] = assay: Thapsigargin-induced apoptosis, TUNEL staining; conditions: co-incubation with SDF-1
Method: FIG. 6. Inhibition of apoptosis by SDF-1 in INS-1 and MIN-6 cells is reversed by knock-down of betacatenin. A. Western blot analysis of extracts from MIN6 cells that were mock treated, thapsigargin-treated (1 μM) and/or siRNA transfected (0.25 mg/ml), by using anti-serum against cleaved caspase-3 (upper panel), anti-serum against cleaved PARP (middle panel) and actin antibody (lower panel) as a loading control. B. Caspase-3 activity (fluorescence/mg proteinx105) of INS-1 or MIN6 cells mock treated, thapsigargin-treated (1 μM) and/or siRNA transfected (0.25 mg/ml). Results are presented as mean±SD for n=3 independent experiments, All values are relative to the first (leftmost) bar. Statistical significance is depicted as * (p<0.05) when compared with control values (leftmost bar) and # (<0.05) when compared with […] thapsigargin treatment. C. Representative images are shown for TUNEL staining of INS-1 cells of n=3 independent experiments. Quantification of apoptotic cells is expressed as percent apoptotic cells relative to the total cells counted (lower left panel). […]
DAPI (nuclei fluorescence) and TUNEL staining For the terminal deoxynucleotidyl transferase mediated dUTP nick end labeling (TUNEL) assay, cells seeded in 4-well chamber slides (Lab-Tak) were treated with thapsigargin and TUNEL assay performed (DeadEnd™ Fluorimetric TUNEL System kit, Promega). […]

Akt = assay: Phospho-Akt to Akt ratio by Western immunoblot in alphaTC-1 cells
Excerpt: FIG. 18. Activation of CXCR4 by SDF-1 in alphaTC-1 cells induces phosphorylation of Akt. Shown is a semi-quantitative measurement of the ratio of phospho-Akt to Akt (lower) determined by Western immunoblots (upper).

PDX-1 = PDX-1 mRNA by RT-PCR in alphaTC-1 cells; conditions: SDF-1 10 nM, by 12 hours
Method: FIG. 22. SDF-1 induces the expression of PDX-1 in alphaTC-1 cells. PDX-1 mRNA is induced by 12 hours after the addition of SDF-1 (10 nM), determined by RT-PCR. M=marker lane.

INS-1 cells [2] = assay: ATP-lite cell viability assay, glucose toxicity; conditions: 25 mM glucose, SDF-1 added day 0, 2, 4, read day 6
Method: FIG. 34. […] For bars 3-8, SDF-1 was added at the indicated concentrations to high glucose concentration well plates at day 0, 2, 4. Cell viability was measured at day 6. N=4.
SDF-1 was added at various concentrations (0.1 nM, 0.25 nM, […], 1 nM, 2.5 nM, and 5 nM) to high glucose concentration well plates at day 0, 2, 4. Cell viability was measured at day 6, using the ATP-lite cell viability assay (PerkinElmer, Boston, Mass.).

alphaTC-1 cells = assay: GLP-1 production in alphaTC-1 cells, RIA of media
Method: FIG. 20. […] Upper panel: AlphaTC-1 and alphaTCdeltaPC2 cells were incubated for 24 hrs and total GLP-1 secreted was measured in the media. Lower panel: AlphaTC-1 cells were treated with SDF-1 or SDF-1+exendin-4 (Exd4) for the times indicated. Media obtained from the cells was assayed with an RIA specific for the active GLP-1. The findings of increased expression of PC1/3 activity, as evidenced by the production of GLP-1. In the absence of PC2 in alphaTCdPC2 cells is consistent with the findings reported by Wideman et al from the Kieffer lab and by Webb et al in the Steiner lab. It appears that in the absence of PC2, PC13 is expressed. The appearance of GLP-1 between 1 and 4 hrs (lower panel) is consistent with the induction of PC1/3 expression shown above in […]. A most high priority in the experiments planned is to determine whether SDF-1 (and cytokines) induce the production of GLP-1 peptide in mouse islets, pending the availability of support required to do these studies.

## SDF-1: small, secreted 70 amino acid peptide chemokine, SEQ ID NO: 1, ligand of CXCR4
INS-1 or MIN6 cells
  effect on thapsigargin-induced caspase-3 activity (proapoptotic effect): attenuated
Wnt signaling
  activation of Wnt signaling (beta-galactosidase) in TopGal islets: activates Wnt signaling
INS-1 cells [1]
  effect on thapsigargin-increased number of TUNEL positive cells: inhibited
Akt
  Akt activation (phosphorylation) in alpha cells: activates Akt
PDX-1
  PDX-1 mRNA expression: induced
INS-1 cells [2]
  protection of cell viability against glucose toxicity: dose-dependently protects
alphaTC-1 cells
  production of processed GLP-1 peptide: induces the production of processed GLP-1 peptide
